Consider one compound from patent publication US6552001B1, “Method breeding and feeds” (Takara Shuzo Co., Ltd., priority 1998, dated 2003).

What all share (type): in vivo
A short description of series [1]: single oral administration to a mouse, death. The following applies: single dosage of 100 mg/kg.
In series [2] the test system is lymphocystis disease. The experiment in a line: soaking plus feed for bastard halibuts with lymphocystis disease cultured on land (Example 1). The following applies: fishes without lymphocystis disease (preventive). The protocol: Then, the water was replaced with seawater. A feed for diseased bastard halibuts was prepared by adding 7 kg of the heat treatment product of alginic acid to 134 kg of the moist feed as shown in Table 1 below. The feed was given to the soaked bastard halibuts twice a day such that the heat treatment product of alginic acid was given at 0.78 g/kg/day.

The test system of series [3] is lymphocystis disease. Put plainly: feed for bastard halibuts with lymphocystis disease cultured in sea (Example 2). The following applies: fishes without infection similarly treated. The protocol: A feed for young bastard halibuts (average body weight: 350 g) suffered from lymphocystis disease during culturing in sea was prepared by adding 3 kg of the heat treatment product of alginic acid as described in Referential Example 1-(1) to 136 kg of the moist feed as shown in Table 2 below. The feed was given to the fishes once in two days such that the heat treatment product of alginic acid was given at 1.2 g/kg/feeding.

Series [4] has as its system gliding bacteria disease. The experiment in a line: young bastard halibuts with gliding bacteria disease, soaking or feed (Example 3). The following applies: fishes without infection similarly treated. The protocol:
Young bastard halibuts with gliding bacteria disease (body weight: about 4 g) cultured on land were divided into four groups. Effect of the heat treatment product of alginic acid as described in Referential Example 1-(1) on gliding bacteria disease was examined.
Control group: 2400 young bastard halibuts were fed with commercially available dry pellets (Otohime No. 4: Nisshin Flour Milling) once a day. They were bred in a 25000-l seawater tank.
Soaked group: A water tank for soaking was prepared by adding 880 g of the heat treatment product of alginic acid to 400 l of seawater and starting oxygen supply. 2375 young bastard halibuts were distributed in baskets such that several hundreds of the fishes were contained in a basket. They were soaked in the water tank for soaking for 30 minutes. After soaking, they were bred in a 25000-l seawater tank being fed with commercially available dry pellets once a day.
Group administered with the heat treatment product of alginic acid (1): 2380 young bastard halibuts were bred in a 25000-l seawater tank being fed once a day with a feed prepared by adding 500 g of the heat treatment product of alginic acid to 78 kg of a moist feed as shown in Table 3 below. […]

For series [5], the system named is white-mouth disease. Put plainly: feed for tiger globefishes with white-mouth disease (Example 4). The following applies: fishes without infection similarly treated. The protocol:
A feed containing the heat treatment product of alginic acid to be given a day to 2000 tiger globefishes (average body weight: 450 g) suffered from white-mouth disease during culturing in sea was prepared upon use as follows. 1.11 kg of the heat treatment product of alginic acid as described in Referential Example 1-(1) was dissolved in water to a volume of 1.5 l. 10 kg of dry pellet feed (Otohime for globefish: Nisshin Flour Milling) was soaked with the solution. The entire feed was given to the fishes once a day such that 20 mg/kg body weight/day of cyclopentenone was given (group administered with the feed containing the heat treatment product of alginic acid).
As a control, 10 kg of the dry pellet feed (otohime for globefish: Nisshin Flour Milling) was given to 2000 tiger globefishes with white-mouth disease (average body weight: 450 g) once a day (control group)

For the compound `O=C1C=CC(O)C1O` (centres unmarked) [cyclopentenone, 4,5-dihydroxy-2-cyclopenten-1-one], the death result in series [1] is recorded as “No death”. The “occurrence of lymphocystis disease” value in series [2] is recorded as “no occurrence”. Further, the occurrence of infection entry in series [3], in series [4] and in series [5] was “no occurrence of infection” in each case.
